# “Also recorded” adds a separate entry of the source. Where two headings read alike, the source gives them in different places.
# How the values were obtained:
# [1] = biological target: T1, Hop TPR2A-Hsp90 MEEVD interaction (Homo sapiens, UniProt P31948); test: LANCE (TR-FRET) proximity assay of Hop TPR2A binding to biotin-Hsp90 MEEVD peptide; details: for LE (ligand efficiency): approximated from LANCE IC50 values using number of heavy atoms
# T1 construct: The TPR2A domain of human Hop, residues 218-350, was cloned from full-length Hop cDNA; made in house; host or cells: Escherichia coli BL21 (DE3) pLysS
# Method: Compounds containing succinic acid substructures were therefore selected to mimic the natural carboxylate clamp interaction between the Hsp90 C-terminus and TPR cochaperones. […] In this assay, compounds that block the protein-peptide interaction cause a loss in fluorescent signal.
# The labelling reagents used were Surelight APC-SA and LANCE Eu-1024 Anti-6xHis (both PerkinElmer). Assays were performed in black low volume 384-well plates (Corning) with a total volume of 20 μl per well in assay buffer of 20 mM HEPES pH 7.4, 100 mM NaCl, 1 mM DTT, 0.1% Tween-20. […] Compound stocks to be screened were individually corrected to approximately neutral pH due to their highly acidic nature and dispensed using a Labcyte Echo acoustic dispenser.
# Raw fluorescence or luminescence values from compound screening were converted to % inhibition of the total assay signal. IC50 values were determined by plotting % inhibition against the log10 of inhibitor concentration and fitted using a variable slope, four-parameter concentration–response curve using a robust fit in GraphPad Prism. […] To generate IC50 values, assays were repeated independently 3 times with duplicate or triplicate wells for each run. […] Ligand efficiency (LE) was approximated from LANCE biochemical IC50 values using the number of heavy atoms (HA)[67].
# Hop TPR2A = biological target: T2, Hop TPR2A (Homo sapiens, UniProt P31948); test: NMR 1H-15N HSQC chemical shift perturbation (CSP) titration; type: binding; details: for Kd: Mean ± S.D. for 10 fitted residues
# T2 construct: The TPR2A domain of human Hop, residues 218-350, was cloned from full-length Hop cDNA; 6xHis (N, cleaved yes); made in house; host or cells: Escherichia coli BL21 (DE3) pLysS
# Method: Chemical shift perturbation (CSP) experiments were carried out on protein and compound mixtures to characterise protein–ligand interactions. ^1H-^15N HSQC spectra were collected on 200 μl samples in 20 mM Na2HPO4 pH 6.5, 50 mM NaCl, 1 mM DTT with 10% D2O in 3 mm NMR tubes (GPE Scientific). […] Each sample was prepared with 100 μM protein while compound or peptide concentration varied according to the experiment. Where possible, compound or peptide stocks were made up in NMR buffer to minimise buffer effects on the spectra. Compounds were otherwise diluted from DMSO stocks maintaining a maximum final DMSO concentration of 3% v/v. HSQC spectra of the protein with DMSO in the buffer were collected as controls. ^1H–^15N HSQC spectra were collected using standard pulse sequences.
# Changes in chemical shifts (∆δ) were calculated for each backbone assigned N–H peak using a weighted CSP[70]. In order to visualise the locations of the largest shifts the ∆δ values were edited into a Hop TPR2A PDB file (in place of B-factors) and represented as surface heat maps in PyMol. Kd values from CSP titrations were calculated from HSQC spectra collected at a series of increasing compound concentrations[58], plots are representative of one titration for several different residues.
# Chemical shift perturbation (CSP) experiments and Kd determination
# Changes in chemical shifts were determined by tracking ligand shifted HSQC peaks in
# NMRView and exporting the resultant peak lists to Excel. In Excel, using appropriate lists of
# control peaks the change in chemical shift (Dd) was calculated for each backbone assigned
# N-H peak using Equation S1.
# (Equation S1) Δδ = %Δ𝛿!! + (0.2Δ𝛿#) -
# Where Δ𝛿!! is the change in proton chemical shift, and Δ𝛿# is the change in nitrogen chemical
# shift. Using a scaling factor (0.2) normalises the difference in magnitude of chemical shifts at
# these two nuclei, various scaling factors are used in the literature and a value of 0.2 has been
# To estimate Kd values from CSP titrations HSQC spectra were collected at a series of
# increasing compound concentrations, peak lists for each concentration were generated and
# exported to Excel. Then using GraphPad Prism the Dd values for each concentration were
# fitted by non-linear regression to Equation S2, taken from Fielding 2007 equation 16 (see also
# Williamson 2013 equation 6 for the derivation).
# (Equation S2) Δ𝛿 = Δ𝛿&’( "[0]
# In which Δ𝛿 is the adjusted chemical shift change, Δ𝛿&’( is the chemical shift change at
# saturation, [𝑃]7 the total protein concentration, 𝐾8 the equilibrium dissociation constant, and
# [𝐿]7the total ligand concentration. Here the Δ𝛿&’( was taken to be the observed Δ𝛿 at the
# highest [𝐿]7. Except in cases where this was clearly far from saturation, when this variable
# was not constrained during the curve fit.
# Determining dissociation constants using CSP titrations requires that the experimental [P] is
# high enough that the signal to noise of the experiment is sufficient while falling into a suitable
# range for accurate curve fitting using equation S2.
# [2] = test system: FLAG-tagged Hsp90 complexes (TPR cochaperone association) from HCT116 cells; test: FLAG co-immunoprecipitation Western blot of Hsp90 complexes; type: biochemical, human
# Hsp90 (Homo sapiens) = test: ITC; details: cited from earlier work
# [3] = n = 3 independent experiments, duplicate wells, Mean ± S.D.
# T1 sequence (P31948 218-350): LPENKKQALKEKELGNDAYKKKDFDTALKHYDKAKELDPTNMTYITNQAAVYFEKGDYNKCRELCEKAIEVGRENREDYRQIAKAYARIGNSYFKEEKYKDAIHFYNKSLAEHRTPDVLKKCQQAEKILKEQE
# T2 sequence (P31948 218-350): as above
# Hop TPR2A (from UniProt P31948), sequence (P31948 223-352): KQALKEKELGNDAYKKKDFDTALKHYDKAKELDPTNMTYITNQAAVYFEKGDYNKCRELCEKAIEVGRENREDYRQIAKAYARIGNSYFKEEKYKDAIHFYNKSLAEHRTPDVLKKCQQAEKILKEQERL
Molecule,LE (ligand efficiency) [1],"IC50 [1, 3]",Kd (Hop TPR2A),other results
Hop TPR2A (from UniProt P31948),,,,Kd (Hsp90 (Homo sapiens)): 11 µM
"O=C(O)CCC(=O)O [Compound 1, succinic acid]",0.42,3960 µM,,IC50 [1]: ~4000 µM
COc1cccc(C2c3[nH]c4ccccc4c3CC3C(=O)N(c4ccccc4C(=O)NCC(=O)O)C(=O)N32)c1 (stereo not shown) [Compound 8],0.13,311 ± 37 µM,,
Cc1ccc(C2c3[nH]c4ccccc4c3CC3C(=O)N(c4ccccc4C(=O)O)C(=O)N32)cc1 (stereo not shown) [Compound 10],0.15,234 ± 75 µM,729 ± 164 µM,
O=C(O)/C=C\C(=O)O [Compound 2],0.47,2170 µM,,
COc1ccc(C2c3[nH]c4ccccc4c3CC3C(=O)N(c4ccccc4C(=O)NC(CC(=O)O)C(=O)O)C(=O)N32)cc1 (stereo not shown) [Compound 7],0.13,74 ± 3.2 µM,,

# Continued, in another order:
LE (ligand efficiency) [1],"IC50 [1, 3]",Kd (Hop TPR2A),Molecule,other results
0.17,80 ± 5.8 µM,177 ± 13 µM,Cc1cccc(C2c3[nH]c4ccccc4c3CC3C(=O)N(c4ccccc4C(=O)O)C(=O)N32)c1 (stereo not shown) [Compound 11],"CSP ∆δ (Hop TPR2A; residue Arg305): 0.38 ppm; CSP ∆δ (Hop TPR2A; residue Asn264): 0.36 ppm; CSP ∆δ (Hop TPR2A; residue Asn308): 0.12 ppm; CSP ∆δ (Hop TPR2A; residue Lys301): 0.1 ppm; TPR cochaperone association with Hsp90 complexes ([2]; added to HCT116 cell lysate, N = 1, qualitative): not; TPR cochaperone association with Hsp90 complexes ([2]; added to purified Hsp90 complexes, N = 1, preliminary, qualitative): reduce TPR cochaperone association; also recorded: may disrupt binding of Hop and another TPR cochaperone, PP5"
0.12,1180 µM,,COc1cccc(C2c3[nH]c4ccccc4c3CC3C(=O)N(c4ccc(C(=O)O)cc4)C(=O)N32)c1 (stereo not shown) [Compound 13],drop in LANCE activity compared to 11 ([1]; carboxylic acid at R2 moved from ortho to para): more than tenfold drop in activity
0.17,94 ± 6.4 µM,352 ± 39 µM,Cc1ccccc1C1c2[nH]c3ccccc3c2CC2C(=O)N(c3ccccc3C(=O)O)C(=O)N21 (stereo not shown) [Compound 12],
0.14,452 ± 14 µM,1410 µM,O=C(O)c1ccccc1N1C(=O)C2Cc3c([nH]c4ccccc34)C(c3ccccc3)N2C1=O (stereo not shown) [Compound 9],

# Source: paper PMC7524759, “Solution structure of the Hop TPR2A domain and investigation of target druggability by NMR, biochemical and in silico approaches” (Scientific Reports, 2020)
